Experimental data reported in US20110098312A1, “METHODS FOR PREVENTING THE DEVELOPMENT OF RETINOPATHY BY THE ORAL ADMINISTRATION OF NNR LIGANDS” (Targacept ,Inc, priority 2008, published 2011).

Experiments:
Pig primary RPE cells = assay: Transepithelial resistance (TER) of RPE monolayers under oxidative stress (H2O2 and serum as source of complement); format: cell-based; conditions: for EC50: Sus scrofa, RPE, pretreatment 1 hour prior to stressors, tested at 5 nM-1 μM, read-out: ED50 (reduction of oxidative stress-mediated TER loss); for Mean Diff., Fisher's PLSD for 100 nM effect: treatment / Mean Diff., Fisher's PLSD for nicotine effect: treatment: Significance Level 5%; for Mean Diff., Fisher's PLSD for nicotine effect: treatment: dose response profiles; for dose-response profile of TER preservation: range 5 nM-1 μM; for effect of compound on TER on its own: test compound controls lack H2O2
Experimental: Pig primary RPE cells grown as stable monolayers were used for this set of experiments. RPE monolayers were treated with hydrogen peroxide (H2O2) and serum as a source of complement. This treatment is known to result in loss of transepithelial resistance (TER) in RPE cells that is dependent upon reactive oxygen species and superoxide production. […] Combined treatment of two stressors present in AMD (low oxidative stress and complement activation) results in TER loss; whereas each stressor alone has no effect. This loss in TER can be eliminated by pretreatment with superoxide dismutase (SOD) mimetic (MnTBAP). […] FIG. 4 is derived from the maximal effects observed in FIG. 3. […] The higher the resistance, the less injury to the cell. Note that “HI” is “heat inactivated.” Heat inactivates complement, a necessary component to cause injury to the RPE in the presence of peroxides. Pig primary RPE cells were harvested from pigs used for practice surgeries. Cultures were performed described by Ablonczy, Z. and C. E. Crosson, VEGF modulation of retinal pigment epithelium resistance. […] Chemicals. Compounds were tested at 5 nM-1 μM concentration. Compound A-E are as noted herein.

[1] = tested on: Rat brain endothelial cell line gp8.3 cells; assay: Alpha 7 ligand modulation of radiation-induced ROS generation; format: cell-based; conditions: 10 uM ligand for 1 h prior to single dose of 10 Gy; H2DCFDA; FIG. 2
[2] = pairwise comparison versus Compound B
[3] = pairwise comparison versus Compound D
[4] = pairwise comparison versus Compound C
[5] = pairwise comparison versus Compound A

Row | SMILES | Mean Diff., Fisher's PLSD for 100 nM effect: treatment (Pig primary RPE cells; [2]) | Mean Diff., Fisher's PLSD for nicotine effect: treatment (Pig primary RPE cells; [2]) | Mean Diff., Fisher's PLSD for 100 nM effect: treatment (Pig primary RPE cells; [3]) | Mean Diff., Fisher's PLSD for nicotine effect: treatment (Pig primary RPE cells; [3]) | dose-response profile of TER preservation (Pig primary RPE cells; FIG. 4) | also measured
1 | O=C(O)c1ccc(/C2=C3\C=CC(=N3)/C(c3ccc(C(=O)O)cc3)=c3/cc/c4[n]3[Mn]([Cl])[n]3c2ccc3/C(c2ccc(C(=O)O)cc2)=C2/C=CC(=N2)\C=4c2ccc(C(=O)O)cc2)cc1 [MnTBAP, reference compound] |  |  |  |  |  | loss in TER caused by combined stressors (Pig primary RPE cells; pretreatment, low oxidative stress and complement activation): eliminated
2 | O=C(N[C@@H]1C2CCN(CC2)[C@H]1Cc1cccnc1)c1cc(F)cc(F)c1 [Compound C, N-((2S,3R)-2-((3-pyridinyl)methyl)-1-azabicyclo[2.2.2]oct-3-yl)-3,5-difluorobenzamide] | 2.066 | −2.035 | 10.098 | 5.144 | plateaued at or around the ED50 level | EC50 (Pig primary RPE cells; FIG. 4): < 50 nM; effect of compound on TER on its own (Pig primary RPE cells): reduced TER on their own
3 | c1cncc(C2CC3CCN2CC3)c1 (stereo not drawn) [Compound D] | −8.023 | −7.179 |  |  |  | 
4 | CN[C@@]1(C)[C@@H]2CC[C@@H](C2)C1(C)C [Compound A, exo-S-mecamylamine] | −14.209 | −16.538 | −6.177 | −9.359 | exhibited a dose-response profile over the entire range used | Mean Diff., Fisher's PLSD for 100 nM effect: treatment (Pig primary RPE cells; [4]): −16.276; Mean Diff., Fisher's PLSD for nicotine effect: treatment (Pig primary RPE cells; [4]): −14.503
5 | CN1CCCC1c1cccnc1 (stereo not drawn) [nicotine, reference compound] |  |  |  |  |  | reduction of oxidative stress-mediated loss of epithelial cell integrity (TER deterioration) (Pig primary RPE cells; H2O2 + serum, dose response, FIG. 4): reduces transepithelial resistance (TER) deterioration in the presence of stress in a dose-dependent manner
6 | C(=C\[C@H]1CCNC1)/c1cncnc1 [Compound E, (R)-5-((E)-2-pyrrolidin-3-ylvinyl)pyrimidine] | 25.718 | 17.682 | 33.750 | 24.861 |  | EC50 (Pig primary RPE cells; FIG. 4): ~200 nM; Mean Diff., Fisher's PLSD for 100 nM effect: treatment (Pig primary RPE cells; [5]): 39.927; Mean Diff., Fisher's PLSD for nicotine effect: treatment (Pig primary RPE cells; [5]): 34.222; Mean Diff., Fisher's PLSD for 100 nM effect: treatment (Pig primary RPE cells; [4]): 23.652; Mean Diff., Fisher's PLSD for nicotine effect: treatment (Pig primary RPE cells; [4]): 19.717
7 | Cc1ccc(C(=O)N[C@@H]2C3CCN(CC3)[C@H]2Cc2cccnc2)s1 [Compound B, N-((2S,3R)-2-((pyridin-3-yl)methyl)-1-azabicyclo[2.2.2]oct-3-yl)-5-methylthiophene-2-carboxamide] |  |  |  |  | plateaued at or around the ED50 level | radiation-induced increase in ROS level [1]: blocked radiation-induced increase in ROS level; effect of compound on TER on its own (Pig primary RPE cells): reduced TER on their own
